IC50 data for 2 compounds are collected here from ChEMBL document CHEMBL1201862, “PubChem BioAssay data set” (2004).

Activity calls are given as the source filed them. Rule as the data show it: actives have a measured IC50 and inactives only a lower limit.

The target of this assay is Envelope glycoprotein gp160 (Human immunodeficiency virus 1, UniProt Q6QLK5). Put plainly: cell-free HIV fusion peptide-binding blockers – biochemical, uHTS, fluorescence dequenching, […] (AID 1986).
Chain of Envelope glycoprotein gp160 (Q6QLK5 whole entry, the tested form may be a part): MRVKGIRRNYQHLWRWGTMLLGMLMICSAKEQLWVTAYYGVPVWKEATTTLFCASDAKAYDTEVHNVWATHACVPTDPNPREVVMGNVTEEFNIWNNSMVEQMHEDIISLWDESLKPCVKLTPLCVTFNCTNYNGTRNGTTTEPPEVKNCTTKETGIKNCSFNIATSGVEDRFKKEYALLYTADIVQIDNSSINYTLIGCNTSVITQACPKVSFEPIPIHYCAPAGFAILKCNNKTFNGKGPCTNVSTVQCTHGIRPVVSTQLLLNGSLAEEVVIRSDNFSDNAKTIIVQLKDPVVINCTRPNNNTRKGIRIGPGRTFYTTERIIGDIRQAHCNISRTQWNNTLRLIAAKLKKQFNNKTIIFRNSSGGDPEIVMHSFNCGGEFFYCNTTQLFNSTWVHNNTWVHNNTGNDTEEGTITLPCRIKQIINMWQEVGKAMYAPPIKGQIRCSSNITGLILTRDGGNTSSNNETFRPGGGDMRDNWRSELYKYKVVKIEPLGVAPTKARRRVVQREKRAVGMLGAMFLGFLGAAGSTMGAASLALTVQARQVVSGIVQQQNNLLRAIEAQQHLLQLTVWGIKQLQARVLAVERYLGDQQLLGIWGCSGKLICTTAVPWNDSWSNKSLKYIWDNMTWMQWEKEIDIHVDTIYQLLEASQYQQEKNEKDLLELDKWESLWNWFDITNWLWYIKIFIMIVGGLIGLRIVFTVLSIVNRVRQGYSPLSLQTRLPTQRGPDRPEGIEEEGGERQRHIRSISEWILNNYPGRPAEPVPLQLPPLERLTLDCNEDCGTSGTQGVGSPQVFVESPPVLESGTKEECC

For `O=C(Nc1cccc(C(F)(F)F)c1)c1cccc(NS(=O)(=O)c2ccc(O)c(C(=O)O)c2)c1`, the half-maximal inhibitory concentration (IC50) (as a rule, the concentration that gives 50% inhibition) is 8.83 µM (active). The result for `COC(=O)c1sc(-c2ccc(C(C)(C)C)cc2)cc1NC(=O)COCC(=O)O` reads 20.9 µM (active).
